# What was measured:
# [1] = Physical form: liquid crystalline behaviour in aqueous solution; assay type: physicochemical; settings: for Dye (1) at a dye concentration of above about 25% by weight
# Text: This is anticipated to correspond to enhanced stability against precipitation and reduced dye degradation for concentrated solutions containing the compounds used in the present invention. The difference in liquid crystalline behaviour is surprising given the structural similarity of Dye (1) and Comparative Dye (1).
# [2] = Solubility of dye in water; assay type: physicochemical
solubility in water [2],solubility in water relative to Comparative Dye (1) ([2]; ratio to Comparative Dye (1)),Compound,liquid crystalline behaviour [1]
15 % of dye by weight,,"O=C(O)c1cc(/N=N/c2ccc(Nc3nc(NCCO)nc(Nc4ccc(/N=N/c5cc(S(=O)(=O)O)c6cccc(S(=O)(=O)O)c6c5)cc4)n3)cc2)cc(C(=O)O)c1 [Comparative Dye (1), reference compound]",no liquid crystalline behaviour
30 % of dye by weight,twice,O=C(O)c1cc(/N=N/c2ccc(Nc3nc(Nc4ccc(/N=N/c5cc(S(=O)(=O)O)c6cccc(S(=O)(=O)O)c6c5)cc4)nc(N(CCO)CCO)n3)cc2)cc(C(=O)O)c1 [Dye (1)],exhibited liquid crystalline characteristics

# From patent publication US7927411B2, “Compound, ink, process and use” (Fujifilm Imaging Colorants Limited, priority 2007, dated 2011)
